The target in experiment [1] is human factor XIa (Homo sapiens (Human), UniProt P03951). The experiment can be described thus: Measurement of FXIa inhibition (fluorogenic substrate Boc-Glu(OBzl)-Ala-Arg-AMC). The class given is biochemical. Particulars: human factor XIa 0.45 nM; 15 min preincubation; 30 min at 22° C.; some as mean values from multiple determinations. As to the method:
a.2) Measurement of FXIa Inhibition
The factor XIa inhibition of the substances according to the invention is determined using a biochemical test system which utilizes the reaction of a peptidic factor XIa substrate to determine the enzymatic activity of human factor XIa. Here, factor XIa cleaves from the peptic factor XIa substrate the C-terminal aminomethylcoumarin (AMC), the fluorescence of which is measured. The determinations are carried out in microtitre plates.
Test substances are dissolved in dimethyl sulphoxide and serially diluted in dimethyl sulphoxide (3000 μM to 0.0078 μM; resulting final concentrations in the test: 50 μM to 0.00013 μM). In each case 1 μl of the diluted substance solutions is placed into the wells of white microtitre plates from Greiner (384 wells). 20 μl of assay buffer (50 mM of Tris/HCl pH 7.4; 100 mM of sodium chloride; 5 mM of calcium chloride; 0.1% of bovine serum albumin) and 20 μl of factor XIa from Kordia (0.45 nM in assay buffer) are then added successively. After 15 min of incubation, the enzyme reaction is started by addition of 20 μl of the factor XIa substrate Boc-Glu(OBzl)-Ala-Arg-AMC dissolved in assay buffer (10 μM in assay buffer) from Bachem, the mixture is incubated at room temperature (22° C.) for 30 min and fluorescence is then measured (excitation: 360 nm, emission: 460 nm). The measured emissions of the test batches with test substance are compared to those of control batches without test substance (only dimethyl sulphoxide instead of test substance in dimethyl sulphoxide), and IC50 values are calculated from the concentration/activity relationships. Activity data from this test are listed in Table B below (some as mean values from multiple independent individual determinations): […]

Experiment [2] addresses human plasma kallikrein (Homo sapiens (Human), UniProt P03952). The experiment can be described thus: Determination of the plasma kallikrein activity (fluorogenic substrate H-Pro-Phe-Arg-AMC). The class given is biochemical. Particulars: human plasma kallikrein 0.6 nM; 15 min preincubation; 30 min at 22° C.; some as mean values from multiple determinations. As to the method:
a.1) Determination of the Plasma Kallikrein Activity
To determine the plasma kallikrein inhibition of the substances according to the invention, a biochemical test system is used which utilizes the reaction of a peptidic plasma kallikrein substrate to determine the enzymatic activity of human plasma kallikrein. Here, plasma kallikrein cleaves from the peptic plasma kallikrein substrate the C-terminal aminomethylcoumarin (AMC), the fluorescence of which is measured. The determinations are carried out in microtitre plates.
Test substances are dissolved in dimethyl sulphoxide and serially diluted in dimethyl sulphoxide (3000 μM to 0.0078 μM; resulting final concentrations in the test: 50 μM to 0.00013 μM). In each case 1 μl of the diluted substance solutions is placed into the wells of white microtitre plates from Greiner (384 wells). 20 μl of assay buffer (50 mM Tris/HCl pH 7.4; 100 mM sodium chloride solution; 5 mM of calcium chloride solution; 0.1% of bovine serum albumin) and 20 μl of plasma kallikrein from Kordia (0.6 nM in assay buffer) are then added successively. After 15 min of incubation, the enzyme reaction is started by addition of 20 μl of the substrate H-Pro-Phe-Arg-AMC dissolved in assay buffer (10 μM in assay buffer) from Bachem, the mixture is incubated at room temperature (22° C.) for 30 min and fluorescence is then measured (excitation: 360 nm, emission: 460 nm). The measured emissions of the test batches with test substance are compared to those of control batches without test substance (only dimethyl sulphoxide instead of test substance in dimethyl sulphoxide), and IC50 values are calculated from the concentration/activity relationships. Activity data from this test are listed in Table A below (some as mean values from multiple independent individual determinations): […]

What is called IC50 is the concentration at which inhibition is half-maximal. Read a high IC50 as lower potency.

Structures are written as SMILES. Counter-ions that a name gives are not always drawn. Some results are limits rather than exact numbers.

human plasma kallikrein, sequence (P03952 391-638): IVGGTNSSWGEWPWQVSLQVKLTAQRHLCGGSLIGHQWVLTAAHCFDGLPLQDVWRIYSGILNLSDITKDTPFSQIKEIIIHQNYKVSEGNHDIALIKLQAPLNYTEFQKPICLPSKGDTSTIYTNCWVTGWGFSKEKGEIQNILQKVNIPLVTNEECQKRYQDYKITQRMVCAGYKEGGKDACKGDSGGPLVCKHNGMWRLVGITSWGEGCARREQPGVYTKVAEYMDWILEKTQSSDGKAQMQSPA
human plasma kallikrein, sequence (P03952 20-390 partner): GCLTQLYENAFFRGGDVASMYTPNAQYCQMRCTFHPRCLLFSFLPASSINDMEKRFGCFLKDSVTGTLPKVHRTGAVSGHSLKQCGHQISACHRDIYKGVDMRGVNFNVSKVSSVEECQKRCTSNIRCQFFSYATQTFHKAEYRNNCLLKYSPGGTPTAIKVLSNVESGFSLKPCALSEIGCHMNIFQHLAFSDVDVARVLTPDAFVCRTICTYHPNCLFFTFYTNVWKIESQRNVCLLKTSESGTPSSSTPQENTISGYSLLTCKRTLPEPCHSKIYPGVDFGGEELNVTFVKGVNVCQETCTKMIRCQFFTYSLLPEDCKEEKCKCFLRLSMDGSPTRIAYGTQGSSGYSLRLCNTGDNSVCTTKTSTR
human factor XIa, sequence (P03951 388-625): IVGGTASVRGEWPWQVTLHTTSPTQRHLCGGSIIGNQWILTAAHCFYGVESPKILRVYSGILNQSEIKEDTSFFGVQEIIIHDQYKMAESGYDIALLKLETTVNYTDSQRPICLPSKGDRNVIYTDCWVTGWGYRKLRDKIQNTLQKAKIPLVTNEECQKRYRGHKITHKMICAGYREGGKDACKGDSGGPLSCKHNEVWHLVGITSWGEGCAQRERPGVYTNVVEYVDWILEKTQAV
human factor XIa, sequence (P03951 19-387 partner): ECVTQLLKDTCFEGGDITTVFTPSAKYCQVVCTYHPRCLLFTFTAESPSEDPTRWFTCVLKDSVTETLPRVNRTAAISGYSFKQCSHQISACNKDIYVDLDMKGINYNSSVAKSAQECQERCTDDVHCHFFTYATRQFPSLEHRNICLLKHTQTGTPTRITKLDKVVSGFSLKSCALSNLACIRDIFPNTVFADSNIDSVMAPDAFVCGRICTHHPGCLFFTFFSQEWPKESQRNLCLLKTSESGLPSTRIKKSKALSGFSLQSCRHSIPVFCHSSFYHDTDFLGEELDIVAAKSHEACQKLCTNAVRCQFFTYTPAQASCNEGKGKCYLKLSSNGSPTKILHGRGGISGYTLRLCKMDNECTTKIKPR

Take `COc1cn(C(C(=O)Nc2ccn3ncc(C(N)=O)c3c2)C(C)CCCN)c(=O)cc1-c1cc(Cl)ccc1C#N` (racemic) [Example 1, 5-({6-Amino-2-[4-(5-chloro-2-cyanophenyl)-5-methoxy-2-oxopyridin-1(2H)-yl]-3-methyl-hexanoyl}amino)pyrazolo[1,5-a]pyridine-3-carboxamidetrifluoroacetate]: the values for the IC50 in experiment [1] and in experiment [2] were above 10000 nM and 5.6 nM, respectively.

Consider `COc1cn([C@H](C(=O)Nc2ccn3ncc(C(N)=O)c3c2)C(C)CCCN)c(=O)cc1-c1cc(Cl)ccc1C#N` (single isomer, unassigned) [Example 2, trifluoroacetate], for which the IC50 was above 2000 nM in experiment [1] and 1.8 nM in experiment [2].

As for `COc1cn([C@H](C(=O)Nc2ccn3ncc(C(N)=O)c3c2)C(C)CCCN)c(=O)cc1-c1cc(Cl)ccc1C#N` (single isomer, unassigned) [Example 3, trifluoroacetate], the figures for the IC50 in experiment [1] and in experiment [2] were above 2000 nM and 2.1 nM, respectively.

Values taken from patent US11884660B2, “Substituted oxopyridine derivative” (Bayer Pharma Aktiengesellschaft, priority 2018, dated 2024).
